This is an account of results in US6624188B1, “Method of treatment with compounds having retinoid-like activity and reduced skin toxicity and lacking teratogenic effects” (Allergan, Inc., priority 1992, dated 2003).

Each structure is given as a SMILES string. In brackets after ≈: the same amount, converted by molar mass. Where two headings read alike, the source gives them in different places.

Data set [1] relates to female hairless mice. The format is in vivo. The settings on record: animals died from a group of 5. On the procedure:
Specifically, tests to determine skin toxicity were performed on certain examplary compounds in accordance with the present invention, and on certain analogous compounds which lack the R3 substituent in accordance with Formula 1, 2 or 3. A “Two Week Acute Skin Toxicity Study of Multiple Topical Applications in Female Hairless Mice” is conducted as follows: a daily dose (expressed in nanomoles) of the “test compound” is applied to the skin on the back of hairless mice (usually a test group of 5 mice for a given compound). The daily dose of the test compound is applied for 5 consecutive days, followed by two days when the test compound is not administered, and is thereafter administered again for 4 more consecutive days. On the 14th day the test animals if still alive, are sacrificed to perform certain studies and tests. In the meanwhile certain tests and observations are made on a daily basis with respect to body weight and skin condition. Skin condition is graded as “flaking/scaling” and “abrasion” on a scale of 0 to +5 where the various numbers correspond to the following observations.
Results of these tests are summarized in Table 3, where daily dose is expressed in nanomoles, weight loss of the test animals is in percentages at the end of the 14 day test period, or at the time the test animal expired, and mortality is expressed with the number of animals which died from a group of 5.

In data set [2] the test system is tissue transglutaminase (tTGASE) in HL-60 cells. The data set is described as follows: Tissue Transglutaminase Assay (tTGASE) in HL-60 Cells. The format is cell-based. To be noted: FIGS. 6-9. As to the method: Other assays in which the retinoid like activity of the compounds used in accordance with the invention are confirmed are the HL-60 transglutaminase induction and HL-60 differentiation assay, the procedures of which are described as follows.
HL-60 cells were grown as a suspension culture in T-162 cm^2 flasks in serum-free RPMI 1640 medium supplemented with insulin (5 μg/ml), transferrin (5 μg/ml), and selenium (3 nM). The cells (1×10^6 cells/well, in 6-well dishes) were treated with serial dilutions of test compounds in the above RPMI 1640 medium which was additionally supplemented with […] dibutyryl cyclic adenosine monophosphate, a component found to be necessary for efficient differentiation of the cells. Ethanol was used in the vehicle control cultures. After 1 days of incubation at 37° C. in a 7.5% CO2 incubator, the cells were collected in a set of tubes and pelleted by centrifugation. The cells were lyzed in a buffer containing 20 mM Tris-HCl, pH 7.5, 1 mM EDTA, and 0.5% Triton X-100. An aliquot of the cell lysate was assayed for tTGASE activity in a reaction mixture containing 20 mM Tris-HCl, pH 7.5, 5 mM CaCl2, 2 mg/ml dimethylcasein, 15 mM B-mercaptoethanol and 50 μCi/ml [2,3-^3H] putrescine dihydrochloride. The reaction was carried out for 60 minutes in a 37° C. shaking water bath. The reaction was stopped by an addition of 10% trichloroacetic acid containing 0.1% putrescein. An aliquot of the stopped reaction mixture was spotted on Whatman 3 MM filter discs. The filter discs, along with the control blank filter discs, were washed twice with 5% trichloroacetic acid containing 0.1% putrescein and twice with methanol. After drying under a heat lamp, the radioactivity in the filter discs was determined by scintillation counting. An aliquot of the cell lysates was also assayed for […] by the Bradford method (Bio-Rad). After subtracting the radioactivity from the control blank filter discs, the data were calculated and expressed as pmol/min/mg protein.
As is well understood in the art, induction of tranglutaminase activity in the just-described assay is an early marker of retinoid like activity.

For data set [3], the system named is limb bud mesenchymal cells. The data set is described as follows: inhibition of chondrogenesis in high-density spot cultures of limb bud mesenchymal cells. The data set is classed as cell-based. To be noted: Mus musculus; limb bud mesenchymal cell spot cultures, terminated 96 hours after plating; read-out: IC50 (concentration which inhibited chondrogenesis by 50%). An excerpt:
In an in vitro bioassay which measures inhibition of chondrogenesis (bone formation) in […] as a classic measure of teratogenecity the results shown in Table 2 were obtained. The assay is described as follows:
High-density “spot” cultures of limb bud mesenchymal cells were used to compare the ability of various concentrations of test drugs to suppress chondrogenic differentiation as a bioassay. Forelimb buds of mouse embryos on day 12 of gestation (54±2 somites) were dissociated in a trypsin-EDTA solution, and the resultant single-cell suspension was plated as 20-μl spots (200,000 cells/spot) on plastic culture dishes. Retinoid concentrations ranging from 0.3 ng/ml to 3 μg/ml (1 nM-10 μM) were added to the culture medium (Eagle's MEM+10% fetal bovine serum, GIBCO) 24 hours after initial plating. […]
The cultures were terminated 96 hours after plating, at which time the medium was removed and the cells were fixed for 1 hour in 10% formalin containing 0.5% cetylpyridinium chloride. The cultures were rinsed in acetic acid and stained for 1 hour in 0.5% Alcian blue solution at pH 1.0, differentiated in 3% acetic acid, and then dehydrated in ethanol and scored for chondrogenesis under the microscope. […] The number of cartilage nodules stained in the whole spot, mean number of nodules, and standard deviations were calculated for four replicate cultures per treatment. […]

Regarding `C/C(=C\c1ccc(C(=O)O)cc1)c1ccc2c(c1)C(C)(C)CCC2(C)C` [AGN 191183, reference compound], the Death/Total in data set [1] (daily dose 7.5 nanomoles topical) is 0/5; in data set [1] (daily dose 25 nanomoles topical) it was 0/5; in data set [1] (daily dose 75 nanomoles topical), 5/5; in data set [1] (daily dose 80 nanomoles topical), 5/5. The “induction of transglutaminase activity” value in data set [2] was “inactive”. Moreover, the IC50 in data set [3] came out at 3 ng/mL (≈ 8.61 nM).
